From patent US9708338B2, “Aromatic heterocyclylamine derivative having TRPV4-inhibiting activity” (Shionogi & Co., Ltd., priority 2013, dated 2017) come the findings set out here.

Molecules are shown by their SMILES.

T1 sequence (Q9HBA0 whole entry): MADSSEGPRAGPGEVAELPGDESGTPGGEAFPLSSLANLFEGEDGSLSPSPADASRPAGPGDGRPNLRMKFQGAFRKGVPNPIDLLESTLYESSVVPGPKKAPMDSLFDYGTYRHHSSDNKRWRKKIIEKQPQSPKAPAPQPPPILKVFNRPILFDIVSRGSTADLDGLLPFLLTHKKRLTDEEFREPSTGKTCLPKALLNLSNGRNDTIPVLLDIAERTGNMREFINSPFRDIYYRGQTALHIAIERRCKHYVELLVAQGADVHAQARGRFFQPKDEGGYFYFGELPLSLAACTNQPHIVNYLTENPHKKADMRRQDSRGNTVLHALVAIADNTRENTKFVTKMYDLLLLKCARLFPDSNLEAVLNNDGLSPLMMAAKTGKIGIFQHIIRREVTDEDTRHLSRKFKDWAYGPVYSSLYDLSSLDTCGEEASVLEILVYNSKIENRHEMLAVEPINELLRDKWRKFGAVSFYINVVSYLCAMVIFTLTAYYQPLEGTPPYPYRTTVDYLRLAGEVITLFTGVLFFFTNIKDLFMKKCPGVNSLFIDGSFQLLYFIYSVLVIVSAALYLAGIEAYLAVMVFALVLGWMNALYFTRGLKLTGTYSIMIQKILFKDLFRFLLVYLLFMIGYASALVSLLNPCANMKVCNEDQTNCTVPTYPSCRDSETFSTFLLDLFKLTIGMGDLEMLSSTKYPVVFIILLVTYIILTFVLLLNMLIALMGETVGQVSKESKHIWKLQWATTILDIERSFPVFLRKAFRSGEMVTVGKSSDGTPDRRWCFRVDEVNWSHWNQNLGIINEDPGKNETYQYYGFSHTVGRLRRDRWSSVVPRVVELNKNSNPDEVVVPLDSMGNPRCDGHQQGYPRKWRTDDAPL

The first series addresses T1, human TRPV4 (Homo sapiens, UniProt Q9HBA0).
T1 construct: expressed in transfected cells; host or cells: CHO-K1
Put plainly: Test Example 1 Measurement of TRPV4 inhibitory activity (IC50 value). The format is cell-based. The settings on record: CHO-K1 cells stably expressing human TRPV4; Fluo 4-AM, FLIPR TETRA; final 1 μmol/L 4α-PDD. On the procedure:
(§1) For each compound, TRPV4 inhibitory activity was measured using cells. (Method) TRPV4 inhibitory activity of the compound was evaluated in accordance with the following procedure.
(§2) (1) The TRPV4 inhibitory activity was measured using CHO-K1 cells stably expressing human TRPV4.
(2) In the day before the experimental day, frozen cell were thawed and washed with the culture medium (MEM-α, 10% FBS, 2 mmol/L GlutaMax, 50 unit Penicillin, 50 μg/mL Streptomycin, 20 mmol/L HEPES). Then cells were suspended in the culture medium.
(3) The 384-well plates which hTRPV4/CHO cells were seeded at densities of 4000 cells/well in the culture medium and cultured in a CO2 incubator in the presence of 5% CO2 at 37° C. for overnight was used as assay plates.
(4) The assay plate was washed with assay buffer (Hanks, 20 mmol/L HEPES, 2.5 mmol/L probenecid, pH 7.4), and the buffer were remained at 20 μL/well.
(5) 10 μl of dye loading buffer (9 μmol/L Fluo 4-AM, 0.09% Pluronic F-127/assay buffer) was added to each well, then the assay plate was incubated in a CO2 incubator in the presence of 5% CO2 at 37° C. for one hour (final 3 μmol/L Fluo4-AM).
(6) The assay plate was washed with the assay buffer, and the buffers were remained at 20 μL/well. Then the assay plate was incubated for 10 min at room temperature.
(7) 20 μL/well of diluted compound solution was dispensed to each well in the compound plate, and mixed with built-in Pipette and Mixer of the Fluorescence analysis system FLIPR TETRA (Molecular devices).
(8) After incubation for 5 min, 20 μL/well of 4α-PDD solution were applied to each well of assay plate and mixed with the FLIPR TETRA (final 1 μmol/L 4α-PDD).
(9) The fluorescent intensity was measured with FLIPR TETRA system for 5 min from the point of time addition the compound solution, at Ex 470-495 nm, Em 515-575 nm wavelength.
(§3) In addition, TRPV4 inhibitory activity (IC50 value) of a compound was evaluated according to the following procedure.
(§4) (10) In the presence of the compound, the difference between maximal and minimal of fluorescent intensity value for 5 min from just before addition of 4α-PDD solution was calculated, and it was referred as Max−Min value. Max−Min value of the compound A at 1 μmol/L was defined as 100% inhibitory activity, Max−Min value in the absence of the compound was defined as 0% inhibitory activity. The TRPV4 inhibitory activity of the compound was calculated by the following formula. Inhibition ratio=(1−(Max−Min value of the compound−100% inhibitory activity)/(0% inhibitory activity−100% inhibitory activity))×100
Herein, the compound A is the compound I-186 described in PCT/JP2013/058722.
(11) Inhibitory activity was calculated at 10 points with three fold serial dilution, in the final concentration of the compound from 10 μmol/L to 0.5 nmol/L, the IC50 value (nmol/L) was calculated by logistic approximation method.
As for `Cc1nc(C)c(-c2csc(Nc3ccc(/C=C/c4ccc(Cl)cc4)cn3)n2)s1` [Compound I-54], the IC50 (in general, the concentration that gives 50% inhibition) was determined as 27 nM. As to `Cc1nc(C(C)O)sc1-c1csc(Nc2ccc(OC(F)(F)F)cn2)n1` (centres unmarked) [Compound I-140], half-maximal inhibition (IC50) was put at 42 nM.

`Cc1nc(C)c(-c2csc(Nc3ccc(C(=O)Cc4ccc(Cl)cc4)cn3)n2)s1` [Compound I-13] had an IC50 of 6.4 nM. With `Cc1nc(C(C)O)sc1-c1csc(Nc2ccc(C(=O)Nc3ccc(C#N)cc3F)cn2)n1` (centres unmarked) [Compound I-134], the IC50 came to 6.8 nM. As for `Cc1nc(C)c(-c2csc(Nc3ccc(C(=O)Nc4cccnc4)cn3)n2)s1` [Compound I-257], half-maximal inhibition (IC50) was put at 14 nM.

In the case of `Cc1nc(C)c(-c2csc(Nc3ccc(C(=O)NC(C)(C)C(F)(F)F)cn3)n2)s1` [Compound I-274], the IC50 is 3.3 nM.

`Cc1nc(C(C)O)sc1-c1csc(Nc2ccc(CCNc3ccc(Cl)cc3F)cn2)n1` (centres unmarked) [Compound I-150] had a half-maximal inhibitory concentration (IC50) of 30 nM. Compound `Cc1nc(C)c(-c2csc(Nc3ccc(CN(CC(C)C)c4ccc(Cl)cc4F)cn3)n2)s1` [Compound I-200] came in with a 50% inhibitory concentration (IC50) of 2.5 nM.

The compound `CC(O)c1nc(CCO)c(-c2csc(Nc3ccc(CNc4ccc(Cl)cc4F)cn3)n2)s1` (centres unmarked) [Compound I-79] gave an IC50 of 27 nM.

Take `Cc1nc([C@H](C)O)sc1-c1csc(Nc2ccc3c(n2)CCCC3Nc2ccc(Cl)cc2F)n1` (some centres unmarked) [Compound I-10]: the midpoint of inhibition, the IC50, lay at 14 nM. `CO[C@H]1C[C@H]2CC[C@@H](C1)N2C(=O)c1ccc(Nc2nc(-c3sc(C(N)=O)nc3C)cs2)nc1` [Compound I-118] returned an IC50 of 9.1 nM. With `COCCN(Cc1ccc(Nc2nc(-c3sc(C)nc3C)cs2)nc1)c1ccc(Cl)cc1F` [Compound I-184], the midpoint of inhibition, the IC50, lay at 4 nM.

For `Cc1nc(C)c(-c2csc(Nc3ccc(S(=O)(=O)Cc4ccc(Cl)cc4)cn3)n2)s1` [Compound I-17], the IC50 was determined as 37 nM.

`Cc1nc(C)c(-c2csc(Nc3ccc(C(C)Nc4ccc(Cl)cc4)cn3)n2)s1` (centres unmarked) [Compound I-188]: the 50% inhibitory concentration (IC50) amounted to 6.4 nM. In turn, `CC(O)c1nc(CC#N)c(-c2csc(Nc3ccc(CNc4ccc(Cl)cc4F)cn3)n2)s1` (centres unmarked) [Compound I-132] had a half-inhibitory concentration (IC50) of 14 nM. In turn, `CC(=O)N(Cc1ccc(Nc2nc(-c3sc(C)nc3C)cs2)nc1)c1ccc(Cl)cc1F` [Compound I-49] had a concentration for half-maximal inhibition (IC50) of 8.6 nM. For the compound `Cc1nc(C(C)O)sc1-c1csc(Nc2ccc(CCOc3ccc(Cl)cc3F)cn2)n1` (centres unmarked) [Compound I-6], the midpoint of inhibition, the IC50, lay at 52 nM.

With `Cc1nc(C)c(-c2csc(Nc3ccc(CNC4(C(F)(F)F)CCCC4)cn3)n2)s1` [Compound I-228], the half-inhibitory concentration (IC50) came out at 1.7 nM. Regarding `Cc1nc(C)c(-c2csc(Nc3ccc(OCc4ccc(Cl)cc4)cn3)n2)s1` [Compound I-312], 24 nM corresponded to half-maximal inhibition (IC50). For `Cc1nc(C)c(-c2c[nH]c(Nc3ccc(CNc4ccc(Cl)cc4F)cn3)n2)s1` [Compound I-41], half-maximal inhibition (IC50) required 42 nM. Compound `Cc1nc([C@H](C)O)sc1-c1csc(Nc2ccc(COC(C(F)(F)F)C(F)(F)F)cn2)n1` [Compound I-45] displayed an IC50 of 8.1 nM. `Cc1nc(C)c(-c2csc(Nc3ccc(CNc4ccc(Cl)cc4F)cn3)n2)o1` [Compound I-43]: the half-maximal inhibitory concentration (IC50) amounted to 39 nM. With `Cc1nc(C)c(-c2csc(Nc3ccc(C(=O)Nc4ccc(Oc5ccccc5)cc4)cn3)n2)s1` [Compound I-270], the IC50 is 26 nM.

The next series deals with T1, human TRPV4. Briefly: Test Example 2 Measurement of TRPV4 inhibitory activity (IC50 value). Type of series: cell-based. The settings on record: CHO-K1 cells stably expressing human TRPV4; DMEM 10% FBS, 5000 cells/well; final 0.15 μmol/L 4α-PDD. As to the method:
as §1, §2
(2) In the day before the experimental day, frozen cell were thawed and washed with the culture medium (DMEM, 10% FBS, 2 mmol/L GlutaMax, 50 unit Penicillin, 50 μg/mL Streptomycin, 0.1 mmol/L Non-Essential Amino Acids, 25 mmol/L HEPES). Then cells were suspended in the culture medium. (3) The 384-well plates which hTRPV4/CHO cells were seeded at densities of 5000 cells/well in the culture medium and cultured in a CO2 incubator in the presence of 5% CO2 at 37° C. for overnight was used as assay plates. (4) The assay plate was washed with assay buffer (Hanks, 20 mmol/L HEPES, 2.5 mmol/L probenecid, pH7.4), and the buffer were remained at 20 μL/well. (5) 10 μl of dye loading buffer (3 μmol/L Fluo 4-AM, 0.03% Pluronic F-127/assay buffer) was added to each well, then the assay plate was incubated in a CO2 incubator in the presence of 5% CO2 at 37° C. for one hour (final 1 μmol/L Fluo4-AM). (6) The assay plate was washed with the assay buffer, and the buffers were remained at 20 μL/well. Then the assay plate was incubated for 10 min at room temperature. (7) 20 μL/well of diluted compound solution was dispensed to each well in the compound plate, and mixed with built-in Pipette and Mixer of the Fluorescence analysis system FLIPR TETRA (Molecular devices). (8) After incubation for 5 min, 20 μL/well of 4α-PDD solution were applied to each well of assay plate and mixed with the FLIPR TETRA (final 0.15 μmol/L 4α-PDD). (9) The fluorescent intensity was measured with FLIPR TETRA system for 5 min from the point of time addition the […], at Ex 470-495 nm, Em 515-575 nm wavelength.
as §3
as §4, with “of the above compound A” for “of the compound A”, “inhibitory activity))×100 (11) Inhibitory activity was calculated at 10 points with three fold serial dilution, in the final concentration of the compound from 10 μmol/L to 0.5 nmol/L, the IC50 value (nmol/L) was calculated by logistic approximation method. (Result)” for “inhibitory activity))×100”
`Cc1nc(C)c(-c2csc(Nc3ccc(C(=O)N4[C@@H]5CC[C@H]4CSC5)cn3)n2)s1` [Compound I-843] came in with an IC50 of 2.6 nM.

Regarding `Cc1nc(C)c(-c2csc(Nc3ccc(C(=O)N4C[C@H]5CC[C@@H](C4)O5)cn3)n2)s1` [Compound I-703], the IC50 was 13 nM.

`CO[C@H]1C[C@H]2CC[C@@H](C1)N2C(=O)c1ccc(Nc2nc(-c3sc(C)nc3C)cs2)nc1` [Compound I-719] displayed an IC50 of 1.6 nM. `Cc1nc(C)c(-c2csc(Nc3ccc(C(=O)N4[C@@H]5CC[C@H]4COC5)cn3)n2)s1` [Compound I-662] returned an IC50 of 6.7 nM. On the same count and under the same terms, the value for `Cc1nc(C)c(-c2csc(Nc3ccc(C(=O)N4[C@@H]5CC[C@H]4COC5)c(F)n3)n2)s1` [Compound I-744] was 4.2 nM; that for `Cc1nc(C)c(-c2csc(Nc3ccc(CN4[C@@H]5CC[C@H]4COC5)cn3)n2)s1` [Compound I-799] was 6.3 nM.

As to `Cc1nc(C)c(-c2csc(Nc3ccc(C(=O)N4CCOc5ccccc54)cn3)n2)s1` [Compound I-831], the concentration for half-maximal inhibition (IC50) amounted to 2.9 nM. In turn, `CCN(CC)C(=O)N1C[C@H]2CC[C@@H](C1)N2C(=O)c1ccc(Nc2nc(-c3sc(C)nc3C)cs2)nc1` [Compound I-592] yielded a half-maximal inhibitory concentration (IC50) of 3.9 nM.

System in another series: not listed separately
Briefly: Test Example 7 Metabolism stability test. Type of series: in vitro ADME. The settings on record: 0.5 μmol/L of test compound, human liver microsomes 0.5 mg protein/mL, 37° C. On the procedure:
Using commercially available pooled human hepatic microsomes, a compound of the present invention was reacted for a constant time, and a remaining rate was calculated by comparing a reacted sample and an unreacted sample, thereby, a degree of metabolism in liver was assessed.
A reaction was performed (oxidative reaction) at 37° C. for 0 minute or 30 minutes in the presence of 1 mmol/L NADPH in 0.2 mL of a buffer (50 mmol/L Tris-HCl pH 7.4, 150 mmol/L potassium chloride, 10 mmol/L magnesium chloride) containing 0.5 mg protein/mL of human liver microsomes. After the reaction, 50 μL of the reaction solution was added to 100 μL of a methanol/acetonitrile=1/1 (v/v), mixed and centrifuged at 3000 rpm for 15 minutes. The compound of the present invention in the supernatant was quantified by LC/MS/MS, and a remaining amount of the compound of the present invention after the reaction was calculated, letting a compound amount at 0 minute reaction time to be 100%. Hydrolysis reaction was performed in the absence of NADPH and glucuronidation reaction was in the presence of 5 mmol/L UDP-glucuronic acid in place of NADPH, followed by similar operations. (Result) % inhibition was shown at 0.5 μmol/L of test compound.
For orientation: Liver microsomes are a subcellular fraction often used to study metabolism.
Consider `CC(O)c1nc(C(O)CO)c(-c2csc(Nc3ccc(CNc4ccc(Cl)cc4F)cn3)n2)s1` (centres unmarked) [Compound I-69], for which the “Percent of compound remaining after 30 min incubation” value is reported as 106%.
